The text below walks through data of patent publication US5254558A, “Substituted 1,3-diazines as leukocyte elastase inhibitors” (Imperial Chemical Industries PLC, priority 1991, dated 1993).

The test system of one assay is HLE. The assay can be described thus: in vivo tests (Acute Lung Injury Model, Acute Hemorrhagic Assay). The settings on record: basis for compounds of particular interest.
Assay [1] concerns the target T1, human leukocyte elastase (HLE) (Homo sapiens, UniProt P08246).
T1 sequence (P08246 30-247 limits assumed): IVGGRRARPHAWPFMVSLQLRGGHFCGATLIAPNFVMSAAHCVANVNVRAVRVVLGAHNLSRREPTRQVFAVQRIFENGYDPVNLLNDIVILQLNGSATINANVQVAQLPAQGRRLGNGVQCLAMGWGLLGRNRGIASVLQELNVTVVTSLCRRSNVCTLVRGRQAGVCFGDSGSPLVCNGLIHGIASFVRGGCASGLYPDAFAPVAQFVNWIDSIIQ
Put plainly: Inhibition measurements: Ki against HLE on substrate methoxy-succinyl-alanyl-alanyl-prolyl-valine-p-nitroanilide. In kind it is biochemical. The settings on record: read-out: Ki, dissociation constant of the complex of inhibitor with HLE. How it is done: The potency of a Compound to act as an inhibitor of human leukocyte elastase (HLE) on the low molecular weight peptide substrate methoxy-succinyl-alanyl-alanyl-prolyl-valine-p-nitroanilide is determined as described in U.S. Pat. No. 4,910,190. The potency of an inhibitor is evaluated by obtaining a kinetic determination of the dissociation constant, Ki, of the complex formed from the interaction of the inhibitor with HLE. If a Compound is found to be a "slow-binding" inhibitor of HLE, special methods of analysis to accurately determine Ki values for the inhibition of HLE are carried out as described in U.S. Pat. No. 4,910,190. In general, the Ki values for Compounds of the invention which were tested are generally on the order of 10^-7 M or much less.

The test system of assay [2] is human neutrophil elastase (HNE). The assay can be described thus: Acute Hemorrhagic Assay: lung hemorrhage after intratracheal HNE in hamsters. In kind it is in vivo, hamster. The settings on record: 2.5 mg/kg by mouth, male Syrian hamsters. As to the method:
This assay relies on monitoring only the amount of hemorrhage in the lung following intratracheal administration of human neutrophil elastase (HNE). Hemorrhage is quantified by disrupting erythrocytes recovered in lung lavage fluid and comparing that to dilutions of whole hamster blood. The screening protocol, similar to that described in Fletcher et al., American Review of Respiratory Disease (1990), 141, 672-677, is as follows. […] The compounds are then dosed by mouth to male Syrian hamsters at a fixed time, such as 30 or 90 min, prior to intratracheal administration of 50 μg/animal of HNE in 300 μL phosphate buffered saline (PBS) pH 7.4. Four hours enzyme administration, the animals are killed with an overdose of pentobarbital sodium, the thorax opened and the lungs and trachea removed. […] The recovered lavages are pooled, the volumes (about 5 mL) are recorded and the lavages stored at 4° C. until assayed. […] The optical densities (OD) of the disrupted lavages and blood samples are determined at 405 nm. The (μL blood equivalents)/(mL lavage) are determined by comparing the OD of the test samples with the OD of the standard curve prepared from whole hamster blood. The total μL equivalents of blood recovered is determined by multiplying recovered lavage volume by the (μL blood equivalents)/(mL lavage) for each sample. […]

The structures appear in SMILES notation.

Take `CC(C)C(NC(=O)Cn1c(-c2cccs2)ncc(N)c1=O)C(=O)C(F)(F)F` (centres unmarked) [Example 12, 2-[5-Amino-6-oxo-2-(2-thienyl)-1,6-dihydro-1-pyrimidinyl]-N-(3,3,3-trifluoro-1-isopropyl-2-oxopropyl)acetamide]: in the assay with HLE, the “activity in in vivo tests” value is given as “activity in in vivo tests”.

One may read the Ki as the dissociation constant of the complex between target and ligand, obtained from inhibition or displacement. In the case of `CC(C)OC(=O)Nc1cnc(-c2cccs2)n(CC(=O)NC(C(=O)C(F)(F)F)C(C)C)c1=O` (centres unmarked) [Example 51], the Ki in assay [1] was 0.027 µM. Further, the inhibition of hemorrhage entry in assay [2] (30 min prior to HNE) and in assay [2] (90 min prior to HNE) was “statistically significant inhibition of hemorrhage” in each case. In the assay with HLE, the “activity in in vivo tests” value is “activity in in vivo tests”.

With `CCNc1cnc(-c2cccs2)n(CC(=O)NC(C(=O)C(F)(F)F)C(C)C)c1=O` (centres unmarked) [Example 82], the “activity in in vivo tests” value in the assay on HLE was “activity in in vivo tests”.

`CSC(=O)Nc1cnc(-c2ccccc2)n(CC(=O)NC(C(=O)C(F)(F)F)C(C)C)c1=O` (centres unmarked) [Example 100]: the “activity in in vivo tests” value in the assay on HLE is on record as “activity in in vivo tests”.

Regarding `CSC(=O)Nc1cnc(-c2ccc(F)cc2)n(CC(=O)NC(C(=O)C(F)(F)F)C(C)C)c1=O` (centres unmarked) [Example 102], in the assay with HLE, the “activity in in vivo tests” value is “activity in in vivo tests”.

Consider `CC(C)C(NC(=O)Cn1c(-c2cccs2)ncc(NC(=O)OCC(F)(F)F)c1=O)C(=O)C(F)(F)F` (centres unmarked) [Example 106], for which the “activity in in vivo tests” value in the assay with HLE is “activity in in vivo tests”.

As for `CC(C)C(NC(=O)Cn1c(-c2cccs2)ncc(NC=O)c1=O)C(=O)C(F)(F)F` (centres unmarked) [Example 157], the “activity in in vivo tests” value in the assay with HLE is reported as “activity in in vivo tests”.

On to `CC(C)C(NC(=O)Cn1c(-c2ccccc2)ncc(NC=O)c1=O)C(=O)C(F)(F)F` (centres unmarked) [Example 159], for which the “activity in in vivo tests” value in the assay on HLE is reported as “activity in in vivo tests”.
